Experimental data: patent US12398154B2, “Azaquinazoline pan-KRas inhibitors” (Mirati Therapeutics, Inc., priority 2020, dated 2025)

Experiments:
Assay in all cases: biochemical
KRas WT = KRas WT (Homo sapiens, UniProt P01116);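 further: binding to KRas read as TR-FRET displacement after a one-hour room-temperature incubation, IC50 derived from percent-of-control values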
Method: (§1) The ability of a compound to bind to KRas was measured using a TR-FRET displacement assay. […] After a 60-minute incubation at room temperature, the reaction was measured using a BMG LABTECH CLARIO star Plus via TR-FRET. […] The POC values were fit to a 4-parameter IC50 equation and the IC50 value reported.

KRas G12V = KRas G12V (Homo sapiens, UniProt P01116, G12V);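 further: KRas binding measured by TR-FRET displacement at room temperature, IC50 fitted from percent of control values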
Method: as §1

KRas G12D = KRas G12D (Homo sapiens, UniProt P01116, G12D);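 further: TR-FRET displacement binding assay on KRas, read after a one-hour incubation at room temperature, IC50 fitted from percent-of-control values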
Method: as §1

KRas G12R = KRas G12R (Homo sapiens, UniProt P01116, G12R);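 further: TR-FRET displacement assay of compound binding to KRas, read after one hour at room temperature, potency from a four-parameter fit of percent-of-control values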
Method: as §1

KRas G12C = KRas G12C (Homo sapiens, UniProt P01116, G12C);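 further: binding to KRas assessed by TR-FRET displacement after one hour incubation at room temperature, potency fitted from percent-of-control values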
KRas G12C, sequence (P01116 1-169 isoform P01116-2 G12C): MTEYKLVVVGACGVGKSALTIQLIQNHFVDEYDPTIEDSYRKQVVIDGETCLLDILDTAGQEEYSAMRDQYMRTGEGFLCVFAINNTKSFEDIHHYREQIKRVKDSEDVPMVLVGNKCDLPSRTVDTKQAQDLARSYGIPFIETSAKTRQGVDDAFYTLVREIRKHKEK
Method: as §1

KRas G12V, sequence (P01116 1-169 isoform P01116-2 G12V): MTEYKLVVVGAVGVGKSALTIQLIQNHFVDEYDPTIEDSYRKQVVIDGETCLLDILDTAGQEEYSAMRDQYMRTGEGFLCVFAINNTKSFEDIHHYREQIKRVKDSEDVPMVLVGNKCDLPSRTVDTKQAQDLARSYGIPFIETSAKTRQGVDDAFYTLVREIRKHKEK
KRas G12R, sequence (P01116 1-169 isoform P01116-2 G12R): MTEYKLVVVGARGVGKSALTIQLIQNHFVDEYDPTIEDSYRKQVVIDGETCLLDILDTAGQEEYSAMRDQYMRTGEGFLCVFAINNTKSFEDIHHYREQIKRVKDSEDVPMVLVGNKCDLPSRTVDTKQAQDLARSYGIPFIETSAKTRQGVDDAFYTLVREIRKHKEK
KRas G12D, sequence (P01116 1-169 isoform P01116-2 G12D): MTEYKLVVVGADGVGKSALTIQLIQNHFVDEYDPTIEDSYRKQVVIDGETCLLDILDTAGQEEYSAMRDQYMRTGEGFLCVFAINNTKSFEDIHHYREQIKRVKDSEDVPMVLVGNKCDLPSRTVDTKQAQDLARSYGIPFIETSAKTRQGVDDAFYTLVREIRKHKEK
KRas WT, sequence (P01116 1-169 isoform P01116-2): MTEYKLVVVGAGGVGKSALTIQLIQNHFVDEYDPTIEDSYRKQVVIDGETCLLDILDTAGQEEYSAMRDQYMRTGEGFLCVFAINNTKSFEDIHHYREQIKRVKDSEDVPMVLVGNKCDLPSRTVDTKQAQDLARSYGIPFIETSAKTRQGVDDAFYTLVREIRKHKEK

IC50 (KRas WT) [µM] | IC50 (KRas G12V) [µM] | IC50 (KRas G12D) [µM] | IC50 (KRas G12R) [µM] | IC50 (KRas G12C) [µM] | Compound
– | 11.5 | 10.4 | 16.1 | 14.2 | CC1(O)CCCN(c2nc(OCC34CCCN3CCC4)nc3c(F)c(-c4cccc5sc(N)nc45)ncc23)C1 (stereo not shown) [Example 67, 1-(7-(2-aminobenzo[d]thiazol-4-yl)-8-fluoro-2-((hexahydro-1H-pyrrolizin-7a-yl)methoxy)pyrido[4,3-d]pyrimidin-4-yl)-3-methylpiperidin-3-ol]
– | 0.212 | 0.139 | 0.41 | 0.295 | C#Cc1cccc2cccc(-c3ncc4c(N5CCCC(C)(O)C5)nc(OCC56CCCN5CCC6)nc4c3F)c12 (stereo not shown) [Example 55]
– | 15 | 14.1 | 45.1 | 21 | CC1(O)CCCCN(c2nc(OCC34CCCN3CCC4)nc3c(F)c(-c4cccc5cccc(F)c45)ncc23)C1 (stereo not shown) [Example 65, 1-(8-fluoro-7-(8-fluoronaphthalen-1-yl)-2-((hexahydro-1H-pyrrolizin-7a-yl)methoxy)pyrido[4,3-d]pyrimidin-4-yl)-3-methylazepan-3-ol]
– | 12.1 | 9.97 | 14.9 | 62.1 | CC1CCCN(c2nc(OCC34CCCN3CCC4)nc3c(F)c(-c4cccc5cccc(F)c45)ncc23)C1 (stereo not shown) [Example 22, 8-fluoro-7-(8-fluoronaphthalen-1-yl)-2-((hexahydro-1H-pyrrolizin-7a-yl)methoxy)-4-(3-methylpiperidin-1-yl)pyrido[4,3-d]pyrimidine]
– | 4.3 | 5.27 | 6.18 | 4.74 | OC1CCCN(c2nc(OCC34CCCN3CCC4)nc3c(F)c(-c4cccc5cccc(F)c45)ncc23)C1 (stereo not shown) [Example 23, 1-(8-fluoro-7-(8-fluoronaphthalen-1-yl)-2-((hexahydro-1H-pyrrolizin-7a-yl)methoxy)pyrido[4,3-d]pyrimidin-4-yl)piperidin-3-ol]
– | 1.3 | 3.78 | 2.27 | – | Fc1c(-c2cccc3cccc(F)c23)ncc2c(N3CCCSCC3)nc(OCC34CCCN3CCC4)nc12 [Example 43, 4-(8-fluoro-7-(8-fluoronaphthalen-1-yl)-2-((hexahydro-1H-pyrrolizin-7a-yl)methoxy)pyrido[4,3-d]pyrimidin-4-yl)-1,4-thiazepane]
– | 10 | 8.78 | 15.4 | – | O=C1CC2(CCCN(c3nc(OCC45CCCN4CCC5)nc4c(F)c(-c5cccc6cccc(CO)c56)ncc34)C2)N1 (stereo not shown) [Example 433, 6-(8-fluoro-2-((hexahydro-1H-pyrrolizin-7a-yl)methoxy)-7-(8-(hydroxymethyl)naphthalen-1-yl)pyrido[4,3-d]pyrimidin-4-yl)-1,6-diazaspiro[3.5]nonan-2-one]
– | 44.5 | 26.9 | 67.8 | – | CC1(O)CCCN(c2nc(OCC34CCCN3CCC4)nc3c(F)c(-c4cccc5cccnc45)ncc23)C1 (stereo not shown) [Example 66]

Further lines, the compound ahead of its results:

Compound | IC50 (KRas WT) [µM] | IC50 (KRas G12V) [µM] | IC50 (KRas G12D) [µM] | IC50 (KRas G12R) [µM] | IC50 (KRas G12C) [µM]
Cc1c(N)nn2c1CN(c1nc(OCC34CCCN3CCC4)nc3c(F)c(-c4cccc5cccc(F)c45)ncc13)CCC2 [Example 278, 5-(8-fluoro-7-(8-fluoronaphthalen-1-yl)-2-((hexahydro-1H-pyrrolizin-7a-yl)methoxy)pyrido[4,3-d]pyrimidin-4-yl)-3-methyl-5,6,7,8-tetrahydro-4H-pyrazolo[1,5-a][1,4]diazepin-2-amine] | 3.67 | 1.99 | 0.801 | 1.86 | –
O=C(c1cc2n(n1)CCCN(c1nc(OCC34CCCN3CCC4)nc3c(F)c(-c4cccc5cccc(F)c45)ncc13)C2)N1CCOCC1 [Example 276, (5-(8-fluoro-7-(8-fluoronaphthalen-1-yl)-2-((hexahydro-1H-pyrrolizin-7a-yl)methoxy)pyrido[4,3-d]pyrimidin-4-yl)-5,6,7,8-tetrahydro-4H-pyrazolo[1,5-a][1,4]diazepin-2-yl)(morpholino)methanone] | 3.22 | 0.303 | 0.212 | 1.21 | –
CC(=O)Nc1cc2n(n1)CCCN(c1nc(OCC34CCCN3CCC4)nc3c(F)c(-c4cccc5cccc(F)c45)ncc13)C2 [Example 275, N-(5-(8-fluoro-7-(8-fluoronaphthalen-1-yl)-2-((hexahydro-1H-pyrrolizin-7a-yl)methoxy)pyrido[4,3-d]pyrimidin-4-yl)-5,6,7,8-tetrahydro-4H-pyrazolo[1,5-a][1,4]diazepin-2-yl)acetamide] | 24.3 | 9.05 | 1.66 | 7.16 | –
CN(C)C(=O)n1cc2c(n1)CCCN(c1nc(OCC34CCCN3CCC4)nc3c(F)c(-c4cccc5cccc(F)c45)ncc13)C2 [Example 274, 5-(8-fluoro-7-(8-fluoronaphthalen-1-yl)-2-((hexahydro-1H-pyrrolizin-7a-yl)methoxy)pyrido[4,3-d]pyrimidin-4-yl)-N,N-dimethyl-5,6,7,8-tetrahydropyrazolo[4,3-c]azepine-2(4H)-carboxamide] | 14.7 | 0.867 | 0.375 | 2.76 | –
Fc1c(-c2cccc3cccc(F)c23)ncc2c(N3CC(n4ccnc4)C3)nc(OCC34CCCN3CCC4)nc12 [Example 75, 4-(3-(1H-imidazol-1-yl)azetidin-1-yl)-8-fluoro-7-(8-fluoronaphthalen-1-yl)-2-((hexahydro-1H-pyrrolizin-7a-yl)methoxy)pyrido[4,3-d]pyrimidine] | – | 2.39 | 63.1 | 0.977 | 1.83
Nc1n[nH]c(CCNc2nc(OCC34CCCN3CCC4)nc3c(F)c(-c4cccc5cccc(F)c45)ncc23)n1 [Example 238, N-(2-(3-amino-1H-1,2,4-triazol-5-yl)ethyl)-8-fluoro-7-(8-fluoronaphthalen-1-yl)-2-((hexahydro-1H-pyrrolizin-7a-yl)methoxy)pyrido[4,3-d]pyrimidin-4-amine] | – | 19.3 | ≥ 100 | 9.18 | –
CCc1cccc2cccc(-c3ncc4c(N5CCCOCC5)nc(OCC56CCCN5CCC6)nc4c3F)c12 [Example 334, 4-(7-(8-ethylnaphthalen-1-yl)-8-fluoro-2-((hexahydro-1H-pyrrolizin-7a-yl)methoxy)pyrido[4,3-d]pyrimidin-4-yl)-1,4-oxazepane] | – | 0.699 | 1.48 | 0.738 | –
OC1CCCCN(c2nc(OCC34CCCN3CCC4)nc3c(F)c(-c4cccc5cccc(F)c45)ncc23)C1 (stereo not shown) [Example 44, 1-(8-fluoro-7-(8-fluoronaphthalen-1-yl)-2-((hexahydro-1H-pyrrolizin-7a-yl)methoxy)pyrido[4,3-d]pyrimidin-4-yl)azepan-3-ol] | – | 2.99 | 3.23 | 6.24 | –
CN(C)c1cc2n(n1)CCCN(c1nc(OCC34CCCN3CCC4)nc3c(F)c(-c4cccc5cccc(F)c45)ncc13)C2 [Example 264, 5-(8-fluoro-7-(8-fluoronaphthalen-1-yl)-2-((hexahydro-1H-pyrrolizin-7a-yl)methoxy)pyrido[4,3-d]pyrimidin-4-yl)-N,N-dimethyl-5,6,7,8-tetrahydro-4H-pyrazolo[1,5-a][1,4]diazepin-2-amine] | – | 13.6 | 8.16 | 9.86 | –
